Legend:
3T3-L1 adipocytes = assay: DNA synthesis / cell proliferation (CyQUANT); assay type: cell-based, murine; settings: 48 hours
Experimental: 3T3-L1 preadipocytes were incubated at a density of 8000 cells/cm^2 (10 cm^2 dish) and grown in Dulbecco's modified Eagle's medium (DMEM) containing 10% FBS and antibiotics (adipocyte medium) at 37° C. in 5% CO2 in air. Confluent preadipocytes were induced to differentiate with a standard differentiation medium consisting of DMEM-F 10 (1:1, vol/vol) medium supplemented with 1% FBS, 1 μM dexamethasone, IBMX (0.5 mM) and antibiotics (1% Penicillin-Streptomycin). Preadipocytes were maintained in this differentiation medium for 3 days and subsequently cultured in adipocyte medium. Cultures were re-fed every 2-3 days to allow 90% of cells to reach full differentiation before conducting chemical treatment. Chemicals were freshly diluted in adipocyte medium before treatment. Cells were washed with fresh adipocyte medium, re-fed with medium containing the different treatments, and incubated at 37° C. in 5% CO2 in air before analysis. Cell viability was measured via trypan blue exclusion. Cells were plated in DMEM with different treatment in duplicate in 96-well plates. After 48 h, a CyQUANT Cell Proliferation Kit (Molecular Probes, Eugene, Oreg.) was used following the manufacturer's protocol a microplate fluorometer (Packard Instrument Company, Inc., Downers Grove, Ill.) was used to measure CyQUANT fluorescence. Cell viability was determined by Trypan blue exclusion examination.

IL-6 = IL-6 expression in differentiated 3T3-L1 adipocytes; assay type: cell-based, mouse; settings: for effect on IL-6 expression: 10 nmol/L, 48 h, adipocytes cultured alone
Experimental: 3T3-L1 pre-adipocytes were incubated at a density of 8000 cells/cm^2 (10 cm^2 dish) and grown in Dulbecco's modified Eagle's medium (DMEM) containing 10% FBS and antibiotics (adipocyte medium) at 37° C. in 5% CO2 in air. Confluent pre-adipocytes were induced to differentiate with a standard differentiation medium consisting of DMEM-F10 (1:1, vol/vol) medium supplemented with 1% fetal bovine serum (FBS), 1 μM dexamethasone, isobutylmethylxanthine (IBMX) (0.5 mM) and antibiotics (1% Penicillin-Streptomycin). Pre-adipocytes were maintained in this differentiation medium for 3 days and subsequently cultured in adipocyte medium. Cultures were re-fed every 2-3 days to allow 90% cells to reach fully differentiation before conducting chemical treatment.
Cells were incubated in serum free medium overnight before chemical treatment. Chemicals were freshly diluted in adipocyte medium before treatment. […] Cell viability was measured via trypan blue exclusion.
Adipocyte and muscle 18s, TNFα, IL-6, IL-8, IL-15 and adiponectin were quantitatively measured using a smart cycler real-time PCR system (Cepheid, Sunnyvale, Calif.) with a TaqMan 1000 Core Reagent Kit (Applied Biosystems, Branchburg, N.J.). The primers and probe sets were obtained from Applied Biosystems TaqMan® Assays-on-Demand™ Gene Expression primers and probe set collection and utilized according to manufacture's instructions. Pooled adipocyte total RNA was serial-diluted in the range of 1.5625-25 ng and used to establish a standard curve; and total RNA for the unknown samples were also diluted in this range. Reactions of quantitative RT-PCR for standards and unknown samples were also performed according to the instructions of Smart Cycler System (Cepheid, Sunnyvale, Calif.) and TaqMan Real Time PCR Core Kit (Applied Biosystems, Branchburg, N.J.). The mRNA quantitation for each sample was further normalized using the corresponding 18s quantitation.
RAW 264 macrophages and 3T3-L1 preadipocytes (American Type Culture Collection) were incubated at a density of 8000 cells/cm2 (10 cm2 dish) and grown in Dulbecco's modified Eagle's medium (DMEM) containing 10% FBS and antibiotics (adipocyte medium) at 37° C. in 5% CO2 in air. […]
Adipocyte and muscle 18s, CD14, TNFα, MIP, M-CSF, IL-6 and MCP-1 were quantitatively measured using a Smart Cycler Real Time PCR System (Cepheid, Sunnyvale, Calif.) with a TaqMan 1000 Core Reagent Kit (Applied Biosystems, Branchburg, N.J.). […] Reactions of quantitative RT-PCR for standards and unknown samples were also performed according to the instructions of Smart Cycler System (Cepheid, Sunnyvale, Calif.) and TaqMan Real Time PCR Core Kit (Applied Biosystems, Branchburg, N.J.). The mRNA quantitation for each sample was further normalized using the corresponding 18s quantitation.

IL-15 = IL-15 expression in differentiated 3T3-L1 adipocytes; assay type: cell-based, mouse
Experimental: (§1) 3T3-L1 pre-adipocytes were incubated at a density of 8000 cells/cm^2 (10 cm^2 dish) and grown in Dulbecco's modified Eagle's medium (DMEM) containing 10% FBS and antibiotics (adipocyte medium) at 37° C. in 5% CO2 in air. Confluent pre-adipocytes were induced to differentiate with a standard differentiation medium consisting of DMEM-F10 (1:1, vol/vol) medium supplemented with 1% fetal bovine serum (FBS), 1 μM dexamethasone, isobutylmethylxanthine (IBMX) (0.5 mM) and antibiotics (1% Penicillin-Streptomycin). Pre-adipocytes were maintained in this differentiation medium for 3 days and subsequently cultured in adipocyte medium. Cultures were re-fed every 2-3 days to allow 90% cells to reach fully differentiation before conducting chemical treatment. […] Cell viability was measured via trypan blue exclusion. Adipocyte and muscle 18s, TNFα, IL-6, IL-8, IL-15 and adiponectin were quantitatively measured using a smart cycler real-time PCR system (Cepheid, Sunnyvale, Calif.) with a TaqMan 1000 Core Reagent Kit (Applied Biosystems, Branchburg, N.J.). […] Reactions of quantitative RT-PCR for standards and unknown samples were also performed according to the instructions of Smart Cycler System (Cepheid, Sunnyvale, Calif.) and TaqMan Real Time PCR Core Kit (Applied Biosystems, Branchburg, N.J.). The mRNA quantitation for each sample was further normalized using the corresponding 18s quantitation.

adiponectin = assay: Adiponectin expression in differentiated 3T3-L1 adipocytes; assay type: cell-based, mouse; settings: 100 nmol/L H2O2 or 1 μmol/L α±tocopherol, 48 h
Experimental: as §1

Row | Structure (SMILES) | effect on glucose induced DNA synthesis (3T3-L1 adipocytes; added to glucose 30 mmol/L, nifedipine 10 μmol/L) | effect on IL-6 expression (IL-6) | effect on IL-6 expression (IL-6; listed as 1α, 25-(OH)2-D3) | increase of total DNA of cultured cells (3T3-L1 adipocytes; H2O2 100 nmol/L, p<0.001) [%] | effect on IL-15 expression (IL-15; 100 nmol/L H2O2, 48 h) | effect on adiponectin production (adiponectin) | increase of IL-6 expression (IL-6; 100 nmol/L H2O2, 48 h, p<0.001) [%] | effect on H2O2 induced DNA synthesis (3T3-L1 adipocytes; with H2O2 100 nmol/L, α-tocopherol 1 μmol/L, nifedipine 10 μmol/L) | increase of IL-15 as compared to H2O2-treated cells (IL-15; 1 μmol/L α±tocopherol added to 100 nmol/L H2O2, 48 h, P=0.043) [fold] | effect on hydrogen peroxide increased IL-6 expression (IL-6; 1 μmol/L α±tocopherol plus 100 nmol/L H2O2, 48 h, p=0.016)
1 | C=C1/C(=C\C=C2/CCC[C@]3(C)[C@@H]([C@H](C)CCCC(C)(C)O)CC[C@@H]23)C[C@@H](O)C[C@@H]1O [calcitriol, 1, 25-Dihydroxyvitamin D] | augmented | markedly stimulate | markedly increased | – | – | – | – | – | – | –
2 | OO [H2O2, hydrogen peroxide] | – | – | – | 39 | no direct effect | without significant effect | 167 | – | – | –
3 | Cc1c(C)c2c(c(C)c1O)CC[C@@](C)(CCC[C@H](C)CCC[C@H](C)CCCC(C)C)O2 [α-tocopherol] | – | – | – | – | – | increased | – | completely blocked | 2.2 | attenuated
